The values below come from ChEMBL document CHEMBL3507680, “University of Dundee, Gates Library screen for HepG2 cell viability”.

A short description of this series: Human HepG2 cell viability assay in 384 well format. The series is classed as toxicity, cell-based. Set-up: dose 125 nL, time 70.5 hour; concentration not given beside the values. The settings on record: HepG2 cells, read-out: Inhibition.

SMILES strings stand for the structures.

With `O=C(c1ccc(C2CCCN2C(=O)c2cscn2)s1)N1CCSCC1` (stereo not drawn), the cytotoxicity at 70.5 h was -11.1%.

For `COc1ccc([C@@H]2CN(c3cc(C(=O)O)ccn3)C[C@H]2N(C)C)cc1`, the cytotoxicity at 70.5 h is 25.7%.

On to `CCc1cc(NCCc2cc(F)cc(F)c2)n2nccc2n1`, for which the cytotoxicity at 70.5 h is -2.57%.

As for `CS(=O)(=O)N1C[C@@H]2CC[C@H](C1)N(Cc1ccsc1)C2`, the cytotoxicity at 70.5 h was found to be 34.2%.

With `CCc1ccc(-c2c(C)c(-c3cnn(C)c3)nc(N)c2C#N)o1`, the cytotoxicity at 70.5 h was -6.72%.

In the case of `COc1cccc(Cl)c1C(C(=O)O)N(C)Cc1c(C)n[nH]c1C` (stereo not drawn), the cytotoxicity at 70.5 h is -12.4%.

Consider `CCN1CCCC(c2c(-c3ccccc3)ncn2Cc2csc(N)n2)C1` (stereo not drawn), for which the cytotoxicity at 70.5 h was -0.765%.

Turning to `CN(Cc1cc2n(n1)CCCNC2)Cc1cc(-c2ccncc2)no1`, the cytotoxicity at 70.5 h was -5.61%.

Turning to `OC(CNc1nc(C2CCCC2)nc2c1CCNCC2)C(F)(F)F` (stereo not drawn), the cytotoxicity at 70.5 h is -7.87%.

Turning to `CCn1cc(CNC(=O)CCc2nnc(-c3ccc(C)s3)o2)cn1`, the cytotoxicity at 70.5 h turned out to be 10%.

As to `CCn1cnnc1CCNC(=O)CCNC(=O)c1ccccc1F`, the cytotoxicity at 70.5 h was -6.14%.

With `CCS(=O)(=O)N[C@H]1CN(CC(C)(C)N2CCOCC2)C[C@@H]1C1CC1`, the cytotoxicity at 70.5 h is -18.9%.

With `COCCN1CCCC(O)(CN2CCN(c3cnccn3)CC2)C1=O` (stereo not drawn), the cytotoxicity at 70.5 h was -3.08%.

As for `CC(C)n1cnnc1CCNCc1cn(CCC(N)=O)c2ccccc12`, the cytotoxicity at 70.5 h was -0.781%.

With `CC(C)NCc1cc2n(n1)CCN(C1CCCCC1)C2`, the cytotoxicity at 70.5 h was found to be 9.14%.

`CCCc1ccc2oc(C(=O)N3CCN(CCOC)CC3)c(C)c2c1`: the cytotoxicity at 70.5 h was -2.68%.

With `COC1CCN(S(=O)(=O)NCC2COc3ccccc3C2)CC1` (stereo not drawn), the cytotoxicity at 70.5 h was -4.76%.

As to `Cc1nc2ccc(S(=O)(=O)Nc3c(C)nn(CC(=O)O)c3C)cc2s1`, the cytotoxicity at 70.5 h is -10.8%.

`Cc1ccnn1CCC(=O)N1C[C@H]2CC[C@@H]1CN(CC(=O)N(C)C)C2`: the cytotoxicity at 70.5 h is -0.432%.

In the case of `CCC[C@H]1CN(Cc2cc(C#N)n(C)c2C)C[C@@H]1N(C)C`, the cytotoxicity at 70.5 h was -7.07%.

For the compound `C/C=C(\C)CN1C[C@@H](NC(=O)c2ccc(F)c(F)c2)C[C@H]1C(=O)NCC`, the cytotoxicity at 70.5 h is -12.2%.

For `Cc1cc(C)n(CC(C)NCc2nc(-c3cccnc3)no2)n1` (stereo not drawn), the cytotoxicity at 70.5 h was -6.9%.

As for `Cc1nc(CN(C)Cc2cnc(N3CCOCC3)s2)no1`, the cytotoxicity at 70.5 h was 22.9%.

As to `CCn1c(C2CCCN(Cc3cccc4cnccc34)C2)nn(C)c1=O` (stereo not drawn), the cytotoxicity at 70.5 h is -7.71%.

For `CC(=O)Nc1ccc(C(=O)Nc2cnc3n2CCCC3)cc1C`, the cytotoxicity at 70.5 h stood at 5.91%.

On to `O=C(CCc1cc2n(n1)CCNC2)NCCS(=O)(=O)N1CCCC1`, for which the cytotoxicity at 70.5 h is -11.2%.

As to `Cc1c[nH]c(CN2CC[C@@]3(O)CCN(C(=O)C4CCC4)C[C@H]3C2)n1`, the cytotoxicity at 70.5 h was -1.74%.

With `COc1ncc(C2(O)CCN(Cc3ccccc3O)CC2)c(OC)n1`, the cytotoxicity at 70.5 h was 7.32%.

In the case of `COCCc1ncc(CN2CCC(Oc3ccccc3C)CC2)cn1`, the cytotoxicity at 70.5 h was -0.184%.

On to `Cc1nc(-c2cccc(C(=O)O)c2)cc(C2CCN(C(C)C)C2)n1` (stereo not drawn), for which the cytotoxicity at 70.5 h is -2.07%.

As for `Cc1cccnc1C(=O)N1CCCC(c2[nH]ncc2S(C)(=O)=O)C1` (stereo not drawn), the cytotoxicity at 70.5 h stood at 0.897%.

Turning to `Cc1cccnc1C(=O)N1CCCCC1c1[nH]ncc1S(C)(=O)=O` (stereo not drawn), the cytotoxicity at 70.5 h turned out to be 1.39%.

Take `Cc1cnc(C(=O)N2CCCCC2c2[nH]ncc2S(C)(=O)=O)cn1` (stereo not drawn): the cytotoxicity at 70.5 h was found to be 3.44%.

Consider `Cc1nccc(CN2CC[C@H](Oc3cccc(F)c3)[C@@](C)(O)C2)n1`, for which the cytotoxicity at 70.5 h was -3.99%.

`Cc1nccn1-c1cccc(C2CCCN2S(=O)(=O)N(C)C)n1` (stereo not drawn): the cytotoxicity at 70.5 h was 2.07%.

With `Cc1nc(C2CCCN2CC(=O)Nc2c(C)n[nH]c2C)no1` (stereo not drawn), the cytotoxicity at 70.5 h worked out at 39%.

As to `COc1c(C2CCCN2C(=O)c2sc(C)nc2C)c(C)nn1C` (stereo not drawn), the cytotoxicity at 70.5 h is 10.6%.

As to `COCc1cccc(CNC(=O)c2c(C)noc2C(C)C)c1`, the cytotoxicity at 70.5 h amounted to 10.6%.
